Test [1] relates to Adjuvant Edema. Briefly: Preventative Adjuvant Edema (Freund's complete adjuvant, hind paw volume). It counts as in vivo, rat (male Sprague Dawley). Conditions: for ED50: ED50, rat (second results table); for Preventative Adjuvant Edema % Inhibition: 25 mg/kg, p.o., rat. As to the method:
This test is a primary screen for anti-inflammatory drugs.
Male Sprague Dawley rats (180-200 g) are used. The animals have free access water but food is withdrawn 18 hours before testing.
Drug Preparations and Administration:
Freund's complete adjuvant is prepared by suspending 5 mg killed and dried Mycobacterium butyricum (Difco) in 1 ml liquid paraffin. The test compounds are dissolved in distilled water or suspended in distilled water with a few drops of Tween 80 according to their solubility. For primary screening all drugs are administrated by gastric lavage at the arbitrary dosage of 100 mg/kg, p.o. in a volume of 0.5 ml/100 g body weight to groups of 10 animals.
The method is essentially that described by Wax et al., J. Pharmacol. Exp. Ther., 192, 166-171 (1975). Groups of rats are injected intradermally in the left hind paw with 0.1 ml of Freund's complete adjuvant. The test compound or vehicle is administrated before the adjuvant, 24 hours and 48 hours after the adjuvant (day 0, 1 and 2). The injected hind paw volume is measured before the injection of adjuvant and 24 hrs. after the last drug administration (day 3) by means of a plethysmometer (Buxco Electronics Inc.). The difference between then hind paw volume on day 0 and day 3 represents the edema volume. Phenylbutazone (50 mg/kg, p.o.) is included as a positive control.
The mean edema volume (expressed as ml±SEM) is calculated for each group and the percentage protection conferred by the drug is calculated:
where c is the mean edema volume for the untreated controls and t is the mean edema volume for the drug treated group.

Test [2] relates to Phenylquinone Writhing. Briefly: Phenylquinone-induced writhing in mice. It counts as in vivo, mouse (male Swiss albino). Conditions: for Phenylquinone Writhing in Mice % Inhibition: p.o.; for ED50: ED50, mice (second results table). The procedure: A further test used to determine the utility of the compounds of the present invention is designated: DRUG EFFECTS ON PHENYLQUINONE-INDUCED WRITHING IN MICE […]
The objective of this test is to determine the ability of test drugs to inhibit the nociceptive (pain) response of mice injected with a chemical irritant. This test is a primary screen for both peripheral and centrally acting analgesic drugs.
Male Swiss albino mice (15-25 g). The animals are fasted for 18 hours prior to use but have free access to water.
(§1) Drug Preparation and Administration:
Drugs are dissolved or suspended according to their solubility in 0.5% methyl cellulose or 0.5% Tween 80. They are administered by gastric lavage in a volume of 5 ml/kg. For primary screening all drugs are administered at the arbitrary dosage of 200 mg/kg, p.o. to a group of 10 mice.
A modification of the method of Siegmund at el., Proc. Soc. Exp. Biol. Med., 95, 729-731 (1957) is used. Groups of 5 mice are dosed with the test compound or vehicle control. Sixty minutes later the animals are injected i.p. with 0.3 ml/20 g body weight of a 0.02% solution of phenylquinone (PBQ; 2-phenyl-1,4-benzoquinone) and placed in individual observation boxes. The numer of writhing or abdominal squirming movements made by each mouse during the following 15 min. period is counted. The experiment is repeated with another group of 5 mice and the mean number of writhes per mouse for a group of 10 mice is calculated.
Drug treated and vehicle-treated control groups are compared and the percentage protection conferred by the drug is calculated:
Percentage protection=(c-t)100/c […]
where c=mean number of writhes in the control group where t=mean number of writhes in the test drug group
For orientation: In writhing tests, fewer writhes than in controls are read as antinociception.

In test [3] the test system is inflamed paw. The test can be described thus: Paw Pressure Test in the Rat (Freund's adjuvant inflamed paw, pain threshold). It counts as in vivo, rat (male Sprague Dawley). Conditions: po; ED50, rat (second results table).
Source text: A still further test used to determine the utility of the compounds of the present invention is designated: PAW PRESSURE TEST IN THE RAT
The objective of this test is to assess the potency of peripheral and central acting drugs in inhibiting the reaction of rats to painful stimulation applied to an inflamed paw.
Male Sprague Dawley rats (180-200 g) are used. The animals are fasted overnight prior to drug administration.
as §1
Freund's Complete Adjuvant (FCA) is prepared by suspending 5 mg killed and dried mycobacterium butyricum (Difco) in 1 ml liquid paraffin. The test compounds are dissolved, or suspended with a few drops of Tween 80, in distilled water according to their solubility. They are administered by gastric gavage in a volume of 0.5 ml/100 g body weight to groups of 10 animals.
Ten rats are used per group. The method is essentially that described by Randall, et al., Arch. Int. Pharmacodyn. 111, 409 (1957) and the apparatus which is used to apply pressure to the paw (Analgesy-meter for the rat paw, Ugo Basile from Coulbourn Instruments) is a modification of that described by Gilfoil et al., J. Pharmacol, 142, 1 (1963). The instrument is basically a device which exerts a force that increases at a constant rate. The force is continuously monitored by a pointer moving along a linear scale and is measured in grams. The inflammatory reaction is induced in the left hind paw of rats by injecting 0.1 ml of Freund's adjuvant intradermally. The test compound or vehicle is administered 24 hours after the adjuvant. Prior to drug administration the rats are selected for their paw sensitivity. Rats responding to a pain threshold greater than 10 g applied to the inflamed paw are rejected. The pain threshold (vocalization) is determined 1 and 3 hours later in the inflamed paw and the normal paw of the treated and control groups. The higher of the 2 readings will be considered as representative of the drug effect on the pain threshold.
Presentation of results and Criteria for Activity:
Each animal which has a reading 1.5 times greater than the mean reading of the control-group will be considered as responsive to treatment. The number of animals showing an analgesic effect is then determined in each group.
The ED50 (dose which causes analgesia in 50% of the animals) using at least 3 doses is then determined, by the method described in Litchfield et al., J. Pharmacol. Exp. Ther., 96, 99 (1949).

The mark [4] stands for this setting: po, 72 h, rat (second results table), read-out: Preventative Adjuvant Edema percent inhibition.
Where [5] appears, read: Mus musculus, po, mice (second results table), read-out: Phenylquinone Writhing in Mice percent inhibition.

Structures are written as SMILES.

Regarding `C=CCC1CCC(CCC)(CC(=O)O)c2[nH]c3c(CC)cccc3c21` (centres unmarked) [Example 21], the inhibition in vivo at 25 mg/kg in test [1] (setting [4]) came to 24%; in test [2] (setting [5]), 21%.

With `CCCC1CCC(CC)(CC(=O)O)c2[nH]c3c(CC)cccc3c21` (centres unmarked) [4-propyl-1,8-diethyl-2,3,4,9-tetrahydro-1H--carbazole-1-acetic acid, reference compound], the “Phenylquinone Writhing in Mice % Inhibition” value in test [2] (25 mg/kg) is given as 15%; in test [2] (200 mg/kg) it was 56%.

The term ED50 denotes the dose that gives a 50% effect, or the effect in half of the subjects. As for `C=CC[C@@H]1CC[C@](CC)(CC(=O)O)c2[nH]c3cc(Cl)ccc3c21` (relative stereo) [Example 20], the ED50 in test [1] (po) came to 5.4 mg/kg; in test [3], 0.38 mg/kg; in test [2] (Mus musculus, po), 5.1 mg/kg.

On to `C=CC[C@@H]1CC[C@](CC)(CC(=O)O)c2[nH]c3c(C)c(F)ccc3c21` (relative stereo) [Example 29], for which the ED50 was 6.4 mg/kg in test [1] (po); 0.1 mg/kg in test [3]; 12.3 mg/kg in test [2] (Mus musculus, po).

As for `C=CC[C@@H]1CC[C@](CC)(CC(=O)O)c2[nH]c3cc(CC)ccc3c21` (relative stereo) [Example 7], the inhibition in vivo at 25 mg/kg in test [1] (setting [4]) is 36%. For the same compound, the ED50 in test [3] worked out at 0.01 mg/kg; in test [2] (Mus musculus, po) it was 10 mg/kg.

Turning to `C=CC[C@@H]1CC[C@](CC)(CC(=O)O)c2[nH]c3c(Cl)cccc3c21` (relative stereo) [Example 16], the ED50 turned out to be 13 mg/kg in test [1] (po); 0.89 mg/kg in test [3]; 11 mg/kg in test [2] (Mus musculus, po).

Consider `C=CC[C@@H]1CC[C@](CC)(CC(=O)O)c2c1c1cccc(CC)c1n2C` (relative stereo) [Example 43, cis-1,8-Diethyl-2,3,4,9-tetrahydro-9-methyl-4-(2-propenyl)-1H-Carbazole-1-acetic Acid], for which the ED50 in test [3] amounted to 8 mg/kg. Further, in test [2] (Mus musculus, po, dose 200 mg/kg, mice (second results table), read-out: Phenylquinone Writhing in Mice percent inhibition), the inhibition in vivo at 200 mg/kg was 32%.

As to `C=CC[C@@H]1CC[C@](CC)(CC(=O)O)c2[nH]c3c(CCC)cccc3c21` (relative stereo) [Example 5], the inhibition in vivo at 10 mg/kg in test [1] (po, 72 h, dose 10 mg/kg, rat (second results table), read-out: Preventative Adjuvant Edema percent inhibition) came to 29%. The inhibition in vivo at 25 mg/kg in test [1] (setting [4]) is 39%. The ED50 in test [3] was 0.009 mg/kg; in test [2] (Mus musculus, po), 28.7 mg/kg.

For `CCc1cccc2c3c([nH]c12)C(CC)(CC(=O)O)CCC3Cc1ccccc1` (single isomer, unassigned) [Example 2 Isomer B, 1,8-Diethyl-2,3,4,9-tetrahydro-4-(phenylmethyl)-1H-carbazole-1-acetic Acid], the “Preventative Adjuvant Edema % Inhibition” value in test [1] was found to be 38%. Besides, the “Phenylquinone Writhing in Mice % Inhibition” value in test [2] (25 mg/kg) is 55%.

For `C=CC[C@@H]1CC[C@](CC)(CC(=O)O)c2[nH]c3cccc(Br)c3c21` (relative stereo) [Example 19], the inhibition in vivo at 25 mg/kg was 50% in test [1] (setting [4]) and 52% in test [2] (setting [5]).

For the compound `C=CC[C@@H]1CC[C@](CC)(CC(=O)O)c2[nH]c3cccc(Cl)c3c21` (relative stereo) [Example 17], in test [1] (po), the ED50 was 6.6 mg/kg. Besides, the inhibition in vivo at 25 mg/kg in test [2] (setting [5]) came out at 35%.

For `CCc1cccc2c3c([nH]c12)C(CC)(CC(=O)O)CCC3Cc1ccccc1` (single isomer, unassigned) [Example 2 Isomer A, 1,8-Diethyl-2,3,4,9-tetrahydro-4-(phenylmethyl)-1H-carbazole-1-acetic Acid], the “Preventative Adjuvant Edema % Inhibition” value in test [1] came out at 6%. In addition, in test [2] (25 mg/kg), the “Phenylquinone Writhing in Mice % Inhibition” value worked out at 15%.

Regarding `C=CC[C@@H]1CC[C@](CC)(CC(=O)O)c2[nH]c3c(Cl)cc(Cl)cc3c21` (relative stereo) [Example 36], the inhibition in vivo at 25 mg/kg in test [1] (setting [4]) stood at 35%. Further, the ED50 in test [2] (Mus musculus, po) was 7.6 mg/kg.

Consider `C=CC(C)(C)C1CCC(CC)(CC(=O)O)c2[nH]c3c(C)c(Cl)ccc3c21` (centres unmarked) [Example 35], for which the results for the inhibition in vivo at 25 mg/kg in test [1] (setting [4]) and in test [2] (setting [5]) were 30% and 28%, respectively.

`C=CC[C@@H]1CC[C@](CC)(CC(=O)O)c2[nH]c3c(C)c(Br)ccc3c21` (relative stereo) [Example 37]: in test [1] (setting [4]), the inhibition in vivo at 25 mg/kg was determined as 34%. This compound returned an ED50 in test [2] (Mus musculus, po) of 3 mg/kg.

For `C=CC[C@@H]1CC[C@](CC)(CC(=O)O)c2[nH]c3cc(Br)ccc3c21` (relative stereo) [Example 18], the ED50 in test [1] (po) was found to be 17.5 mg/kg; in test [2] (Mus musculus, po), 3.6 mg/kg.

Turning to `C=CC[C@@H]1CC[C@](CC)(CC(=O)O)c2[nH]c3c(C(C)C)cccc3c21` (relative stereo) [Example 10], the figures for the inhibition in vivo at 25 mg/kg in test [1] (setting [4]) and in test [2] (setting [5]) were 43% and 27%, respectively.

Take `C=CC[C@@H]1CC[C@](CC)(CC(=O)O)c2[nH]c3c(I)cccc3c21` (relative stereo) [Example 22]: the inhibition in vivo at 25 mg/kg in test [1] (setting [4]) came to 46%. For the same compound, in test [2] (Mus musculus, po), it took a dose of 17 mg/kg to reach the 50% effect level (ED50).

Turning to `C=CC(C)(C)C1CCC(CC)(CC(=O)O)c2[nH]c3c(F)cccc3c21` (centres unmarked) [Example 23], the inhibition in vivo at 25 mg/kg in test [1] (setting [4]) worked out at 16%; in test [2] (setting [5]), 41%.

On to `C=CC[C@@H]1CC[C@](CC)(CC(=O)O)c2[nH]c3ccc(F)cc3c21` (relative stereo) [Example 13], for which the inhibition in vivo at 25 mg/kg in test [1] (setting [4]) was determined as 36%; in test [2] (setting [5]), 20%.

Regarding `C=C(C)CC1CCC(CC)(CC(=O)O)c2[nH]c3ccccc3c21` (centres unmarked) [Example 24], the inhibition in vivo at 25 mg/kg in test [1] (setting [4]) was determined as 56%; in test [2] (setting [5]), 29%.

Take `C=CC[C@@H]1CC[C@](CC)(CC(=O)O)c2[nH]c3c(F)cccc3c21` (relative stereo) [Example 15]: the ED50 in test [1] (po) was 13.3 mg/kg. Besides, in test [2] (setting [5]), the inhibition in vivo at 25 mg/kg turned out to be 27%.

As to `C=CCC1CCC(C)(CC(=O)O)c2[nH]c3c(CC)cccc3c21` (centres unmarked) [Example 9], the inhibition in vivo at 25 mg/kg in test [1] (setting [4]) came to 38%; in test [2] (setting [5]) it was 37%.

With `C=CC[C@@H]1CC[C@](CC)(CC(=O)O)c2[nH]c3c(Br)cccc3c21` (relative stereo) [Example 14], the ED50 in test [1] (po) was 28 mg/kg. Moreover, the inhibition in vivo at 25 mg/kg in test [2] (setting [5]) stood at 38%.

Regarding `C=CC[C@@H]1CC[C@](CC)(CC(=O)O)c2[nH]c3c(C)ccc(Cl)c3c21` (relative stereo) [Example 38], the inhibition in vivo at 25 mg/kg in test [1] (setting [4]) stood at 48%. The compound also yielded an ED50 in test [2] (Mus musculus, po) of 5.4 mg/kg.

(Values after patent publication US4616028A, “Substituted 2,3,4,9-tetrahydro-1H-carbazole-1-acetic acid derivatives, compositions and use” (American Home Products Corporation, priority 1985, dated 1986).)
